Measurements from US20070191490A1, “Withacnistin compounds for treatment of cancer” (priority 2006, published 2007).
Where two headings read alike, the source gives them in different places.

Legend:
vector/3T3 cells = assay: TUNEL apoptosis assay, vector NIH 3T3; type: cell-based, murine; settings: 10 μM withacnistin mixture, 24 hours
Protocol: (§1) In vitro cellular proliferation and TUNEL assays. Subconfluent A549, MDA-MB-435, MDA-MB-453, MDAMB-468, v-Src transformed NIH 3T3 (v-Src/3T3), H-Ras transformed NIH 3T3 (H-Ras/3T3), and vector NIH 3T3 cells were grown in the presence of 10 μM cucurbitacin A, cucurbitacin I, withacnistin mixture, or DMSO vehicle control. After 24 hours, cells were harvested by trypsinization and counted via trypan blue exclusion assay to determine cellular viability. In all, 75,000-150,000 cells (depending on cell line) were then spun onto glass slides using a Cytospin 3 centrifuge (Thermo Shandon Inc., Pittsburgh, Pa., USA). After fixing cells to the slides with 4% paraformaldehyde in PBS, pH 7.5, for 1 h at room temperature, cells were labeled for apoptotic DNA strand breaks by TUNEL reaction using an in situ cell death detection kit (Roche Applied Science, Indianapolis, Ind., USA) according to the manufacturer's instructions, then mounted in Vectashield mounting medium (Vector Laboratories, Burlingame, Calif., USA) containing 4′,6-diamidino-2-phenylindole (DAPI) to counterstain DNA. […] TUNELpositive nuclei were counted and compared to DAPI-stained nuclei to determine the percent induction of apoptosis by the different cucurbitacin compounds. Statistical significance between control and treated tumors were evaluated by using Student's t-test. […]

MDA-MB-435 cells = assay: TUNEL apoptosis assay, MDA-MB-435; type: cell-based, human; settings: 10 μM withacnistin mixture, 24 hours
Protocol: as §1

H-Ras/3T3 cells = assay: TUNEL apoptosis assay, H-Ras/3T3; type: cell-based, murine; settings: 10 μM withacnistin mixture, 24 hours
Protocol: as §1

phosphotyrosine-STAT3 = assay: Inhibition of phosphotyrosine-STAT3 levels in tumor cell lines (Western blotting); type: cell-based, human; settings: A549 cells, by 24 hours; data not shown
STAT3 = target: T1, STAT3 (Homo sapiens, UniProt P40763); assay: Growth factor/cytokine stimulation of STAT3 tyrosine phosphorylation; type: cell-based
T1 construct: endogenous in cells; host or cells: U266; MDA-MB-468
T1 sequence (P40763 2-770 limits assumed): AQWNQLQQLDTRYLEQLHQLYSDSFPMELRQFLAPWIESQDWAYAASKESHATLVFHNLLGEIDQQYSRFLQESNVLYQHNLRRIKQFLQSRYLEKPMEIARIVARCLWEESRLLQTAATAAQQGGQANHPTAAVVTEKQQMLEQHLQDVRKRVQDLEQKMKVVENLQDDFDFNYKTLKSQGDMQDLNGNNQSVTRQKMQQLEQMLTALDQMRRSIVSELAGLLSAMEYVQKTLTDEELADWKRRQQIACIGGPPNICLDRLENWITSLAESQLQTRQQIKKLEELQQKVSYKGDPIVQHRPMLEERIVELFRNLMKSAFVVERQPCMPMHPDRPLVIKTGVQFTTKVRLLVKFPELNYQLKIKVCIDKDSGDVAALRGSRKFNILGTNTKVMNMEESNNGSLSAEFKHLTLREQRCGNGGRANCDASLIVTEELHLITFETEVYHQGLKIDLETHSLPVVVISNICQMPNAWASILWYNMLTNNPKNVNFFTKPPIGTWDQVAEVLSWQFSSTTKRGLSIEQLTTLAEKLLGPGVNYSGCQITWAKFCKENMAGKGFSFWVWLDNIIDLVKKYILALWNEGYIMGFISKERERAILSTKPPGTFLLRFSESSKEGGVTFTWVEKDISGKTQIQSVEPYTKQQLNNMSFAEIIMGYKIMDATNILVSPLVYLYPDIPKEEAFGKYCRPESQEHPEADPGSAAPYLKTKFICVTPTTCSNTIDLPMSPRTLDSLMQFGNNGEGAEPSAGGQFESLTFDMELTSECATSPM
Protocol: Furthermore, it is not know whether Wit suppresses constitutive or stimulated P-STAT3 levels selectively over other STAT family members such as STAT1 and STAT5. To this end, a variety of human cancer cell lines were treated with Wit and stimulated with growth factors or cytokines known to activate STAT family members as described under Methods. […] Pretreatment of U266 cells with W or WM blocked this IL-6 activation of STAT3 in a dose-dependent manner. In contrast, IL-6 activation of STAT1 in these cells was not affected by Wit pretreatment (FIG. 9B).

A549 cells [1] = assay: Trypan blue exclusion assay (tumor cell death); type: cell-based, human; settings: 10 μM, 24 h
Protocol: In vitro cellular proliferation and TUNEL assays. Subconfluent A549, MDA-MB-435, MDA-MB-453, MDAMB-468, v-Src transformed NIH 3T3 (v-Src/3T3), H-Ras transformed NIH 3T3 (H-Ras/3T3), and vector NIH 3T3 cells were grown in the presence of 10 μM cucurbitacin A, cucurbitacin I, withacnistin mixture, or DMSO vehicle control. After 24 hours, cells were harvested by trypsinization and counted via trypan blue exclusion assay to determine cellular viability. In all, 75,000-150,000 cells (depending on cell line) were then spun onto glass slides using a Cytospin 3 centrifuge (Thermo Shandon Inc., Pittsburgh, Pa., USA). […] TUNELpositive nuclei were counted and compared to DAPI-stained nuclei to determine the percent induction of apoptosis by the different cucurbitacin compounds. Statistical significance between control and treated tumors were evaluated by using Student's t-test.
The next objective was to determine whether the ability of the cucurbitacins and withacnistin to induce apoptosis is dependent on suppression of PJAK2 and/or P-STAT3 levels. To this end, A549 cells were treated with vehicle control, or cucurbitacins (10 μM), or the withacnistin mixture (10 μM) for 24 h, harvested the cells, and determined tumor cell death (trypan blue exclusion) and apoptosis (TUNEL) as described under Materials and methods.

Src kinase [2] = target: T2, Src kinase (Homo sapiens, UniProt P12931); assay: Src kinase inhibition in vitro; type: biochemical; settings: data not shown
T2 sequence (P12931 whole entry): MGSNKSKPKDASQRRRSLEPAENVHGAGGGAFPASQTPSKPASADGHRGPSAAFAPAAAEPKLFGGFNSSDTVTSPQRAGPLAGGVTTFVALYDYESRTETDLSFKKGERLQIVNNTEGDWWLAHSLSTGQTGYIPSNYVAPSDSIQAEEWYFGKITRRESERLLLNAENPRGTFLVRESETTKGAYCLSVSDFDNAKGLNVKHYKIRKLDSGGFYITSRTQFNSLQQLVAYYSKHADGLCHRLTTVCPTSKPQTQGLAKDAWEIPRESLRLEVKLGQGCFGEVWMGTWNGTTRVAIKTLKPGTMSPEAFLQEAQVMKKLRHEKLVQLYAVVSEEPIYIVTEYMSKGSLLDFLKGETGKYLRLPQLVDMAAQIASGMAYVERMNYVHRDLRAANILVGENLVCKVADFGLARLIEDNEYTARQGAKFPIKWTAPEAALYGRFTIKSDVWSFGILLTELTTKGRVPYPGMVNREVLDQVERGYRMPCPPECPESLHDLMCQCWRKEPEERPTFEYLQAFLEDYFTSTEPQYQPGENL
Description: The actual biochemical targets for cucurbitacins are not known. […] Possible tyrosine kinases that could be targets are the Src family of kinases. Src kinase itself was not inhibited in vitro by Cuc I (Blaskovich, M. A. et al. Cancer Res., 2003, 63:1270-1279) and withacnistin (data not shown).

A549 cells [3] = assay: TUNEL apoptosis assay, A549; type: cell-based, human; settings: for apoptosis (TUNEL): 10 μM, 24 h
Protocol: In vitro cellular proliferation and TUNEL assays. Subconfluent A549, MDA-MB-435, MDA-MB-453, MDAMB-468, v-Src transformed NIH 3T3 (v-Src/3T3), H-Ras transformed NIH 3T3 (H-Ras/3T3), and vector NIH 3T3 cells were grown in the presence of 10 μM cucurbitacin A, cucurbitacin I, withacnistin mixture, or DMSO vehicle control. After 24 hours, cells were harvested by trypsinization and counted via trypan blue exclusion assay to determine cellular viability. In all, 75,000-150,000 cells (depending on cell line) were then spun onto glass slides using a Cytospin 3 centrifuge (Thermo Shandon Inc., Pittsburgh, Pa., USA). After fixing cells to the slides with 4% paraformaldehyde in PBS, pH 7.5, for 1 h at room temperature, cells were labeled for apoptotic DNA strand breaks by TUNEL reaction using an in situ cell death detection kit (Roche Applied Science, Indianapolis, Ind., USA) according to the manufacturer's instructions, then mounted in Vectashield mounting medium (Vector Laboratories, Burlingame, Calif., USA) containing 4′,6-diamidino-2-phenylindole (DAPI) to counterstain DNA. Fluorescein-labeled DNA strand breaks (TUNEL-positive cells) were then visualized using a fluorescent microscope (Leica Microsystems Inc., Bannockburn, Ill., USA) and pictures taken with a digital camera (Diagnostic Instruments, Inc., Sterling Heights, Mich., USA). TUNELpositive nuclei were counted and compared to DAPI-stained nuclei to determine the percent induction of apoptosis by the different cucurbitacin compounds. Statistical significance between control and treated tumors were evaluated by using Student's t-test.
The next objective was to determine whether the ability of the cucurbitacins and withacnistin to induce apoptosis is dependent on suppression of PJAK2 and/or P-STAT3 levels. To this end, A549 cells were treated with vehicle control, or cucurbitacins (10 μM), or the withacnistin mixture (10 μM) for 24 h, harvested the cells, and determined tumor cell death (trypan blue exclusion) and apoptosis (TUNEL) as described under Materials and methods. […]

Src kinase [4] = target: T2, Src kinase; settings: Blaskovich et al. 2003; cited from earlier work
phospho-Src = phospho-Src levels in A549 cells (Western blotting); type: cell-based, human; settings: 10 μM, 4 hours
Protocol: (§2) Western blotting. Treated cell samples were lysed in 30 mM HEPES, pH 7.5, 10 mM NaCl, 5 mM MgCl2, 25 mM NaF, 1 mM EGTA, 1% Triton X-100, 10% glycerol, 2 mM sodium orthovanadate, 10 μg/ml aprotinin, 10μ/ml soybean trypsin inhibitor, 25 μg/ml leupeptin, 2 mM PMSF, and 6.4 mg/ml p-nitrophenylphosphate. Phospho-STAT3, phospho-AKT, phospho-Src, and phospho-p42/p44 MAPK antibodies were obtained from Cell Signaling Technologies (Cambridge, Mass., USA). Phospho-JNK and whole STAT3 antibodies were purchased from Santa Cruz Biotechnology (Santa Cruz, Calif., USA); phospho-JAK2 antibody came from Upstate Biotechnology (Lake Placid, N.Y., USA). Membranes were blocked in either 5% milk in phosphate-buffered saline (PBS), pH 7.4, containing 0.1% Tween-20 (PBS-T) or 1% BSA in tris-buffered saline (TBS), pH 7.5, containing 0.1% Tween-20 (TBS-T). Phospho-specific antibodies (excepting P-MAPK and P-JNK) were incubated in 1% BSA in TBS-T while all other antibodies were diluted in 5% milk in PBS-T for either 2 h at room temperature or overnight at 4° C. HRP-conjugated secondary antibodies (Jackson ImmunoResearch, West Grove, Pa., USA) were diluted in 5% milk in either PBS-T or TBS-T at 1:1000 dilution for 1 h at room temperature. […]
(§3) It was next determined whether withacnistin and the Cuc analogs are selective for the JAK2/STAT3 pathway over other signal transduction pathways. […]

phospho-JNK = phospho-JNK levels in A549 cells (Western blotting); type: cell-based, human; settings: 10 μM, 4 hours
Protocol: as §2, §3

phospho-Akt = phospho-Akt levels in A549 cells (Western blotting); type: cell-based, human; settings: 10 μM, 4 hours
Protocol: as §2, §3

In the case of `CC(=O)OC[C@]12CC[C@H]3[C@@H](C[C@H]4O[C@]45[C@@H](O)C=CC(=O)[C@]35C)[C@@H]1CC[C@@H]2[C@H](C)[C@H]1CC(C)=C(C)C(=O)O1` [withacnistin], the “apoptosis (TUNEL-positive cells)” value (vector/3T3 cells) was 7.3±3.9%, the “fold increase of apoptosis over control” value (vector/3T3 cells) was 4.2 fold and the “increase of percentage of apoptotic cells compared to vehicle control” value (MDA-MB-435 cells) was 25.9 fold. For the same compound, the “apoptosis (TUNEL-positive cells)” value (H-Ras/3T3 cells) was 7.3±4.7%, the “fold increase of apoptosis over control” value (H-Ras/3T3 cells) was 12.5 fold and the P-STAT3 levels (phosphotyrosine-STAT3) was “suppressed”. The “EGF activation of STAT3” value (STAT3; MDA-MB-468 cells) was “inhibited”, the “IL-6 activation of STAT3 (tyrosine phosphorylation)” value (STAT3; U266 cells, pretreatment, dose-dependent) was “blocked” and the “PDGF-stimulated tyrosine phosphorylation of STAT3” value (STAT3; pretreatment (FIG. 9D)) was “inhibited”. For the same compound, the “tumor cell death (trypan blue exclusion)” value (A549 cells [1]) was 60%, the “inhibition of Src kinase in vitro” value (Src kinase [2]) was “not inhibited” and the “increase of percentage of apoptotic tumor cells compared to vehicle-treated control” value (A549 cells [3]; 10 μM withacnistin mixture, 24 hours) was 27.4 fold. The “apoptosis (TUNEL)” value (A549 cells [3]) was 28%.
For `CC(C)(O)/C=C/C(=O)[C@](C)(O)[C@H]1[C@H](O)C[C@@]2(C)[C@@H]3CC=C4[C@@H](C=C(O)C(=O)C4(C)C)[C@]3(C)C(=O)C[C@]12C` [Cuc I, cucurbitacin I], the “inhibition of Src kinase in vitro” value (Src kinase [4]) is given as “not inhibited”.
In the case of `CC(=O)OC(C)(C)/C=C/C(=O)[C@](C)(O)[C@H]1[C@H](O)C[C@@]2(C)[C@@H]3CC=C4[C@@H](C[C@H](O)C(=O)C4(C)C)[C@]3(CO)C(=O)C[C@]12C` [Cuc A, cucurbitacin A], the “tumor cell death (trypan blue exclusion)” value (A549 cells [1]) was 11%, the “phosphotyrosine levels of Src” value (phospho-Src) was “little inhibitory activity” and the “apoptosis (TUNEL)” value (A549 cells [3]) was 5%. For the same compound, the “phosphotyrosine levels of JNK1” value (phospho-JNK) was “little inhibitory activity” and the “phosphotyrosine levels of Akt” value (phospho-Akt) was “little inhibitory activity”.
